Source: patent US20220291238A1, “Methods for Predicting Treatment Response in Ulcerative Colitis” (Janssen Biotech, Inc., priority 2021, published 2022)

Experiments:
human colonoids = experiment: Cytokine treatment of human colonoids, RNA-seq; format: cell-based; conditions: human colonoids, 24 hours
Procedure: All patients provided informed consent (NRES/IRAS id:15/LO/1998). Subsequent establishment of human colonoids was performed as previously described by Sato et al (48). The crypts were cultured in growth medium containing advanced Dulbecco's modified Eagle's medium/F12, penicillin/streptomycin (100 units/mL), 10 mM HEPES, 2 mM Glutamax, supplements N2 (1×) and B27 (1×), 50 ng/mL mouse epidermal growth factor (all from Life Technologies; Carlsbad, Calif.), 1 mM N-acetylcysteine (Sigma-Aldrich; St. Louis, Mo.), 50% v/v Wnt3a conditioned medium, 10% v/v R-spondin-1 conditioned medium, 100 ng/mL murine recombinant noggin protein (Peprotech; Rocky Hill, N.J.), 10 nM gastrin (Sigma-Aldrich), 500 nM A83-01 (Bio-techne; Minneapolis, Minn.), 10 μM SB202190 (Sigma-Aldrich) and 10 mM Nicotinamide (Sigma-Aldrich). 10 μM Y-27632 (Sigma-Aldrich) was added to the culture medium for the initial 3 days. Medium was changed every 2 days. […] During the last 24 hours in differentiation medium, human colonoids were treated with human recombinant IL22 (10 ng/mL), IL17A (50 ng/mL), TNFα (10 ng/mL), IFNγ (20 ng/mL), IL13 (10 ng/mL) and IL22 (10 ng/mL)/IL17A (50 ng/mL) combination.
(§1) RNA extraction: Colonoids and LPMC were treated in a similar fashion. Cells were lysed and RNA was extracted using the RNAeasy kit (Qiagen; Hilden, Germany). This step was optimized balancing the effectiveness of elimination of DNA quantified (Qubit dsDNA HS assay kit) versus the loss of quantity of RNA (Qubit RNA BR assay kit). Optimal DNAse I concentration was determined to be ×5 the standard concentration. 500 ng of cDNA was then created using Revertaid cDNA synthesis kit (ThermoFisher) and diluted to a concentration of 6.25 ng/μl. Harvested colonoids were put in Qiazol and then RNA was extracted with the RNAeasy kit (Qiagen) as per manufacturer's guidelines. cDNA was created using the Revertaid cDNA synthesis kit (ThermoFisher).
Library preparation and sequencing: A total amount of 3 μg RNA per sample was used as input material for the RNA sample preparations. Sequencing libraries were generated using NEBNextR Ultra™ RNA Library Prep Kit for IlluminaR (NEB, Ipswich, Mass.) following manufacturer's recommendations and index codes were added to attribute sequences to each sample. Briefly, mRNA was purified from total RNA using poly-T oligo-attached magnetic beads. Fragmentation was carried out using divalent cations under elevated temperature in NEBNext First Strand Synthesis Reaction Buffer (5×). First strand cDNA was synthesized using random hexamer primer and M-MuLV Reverse Transcriptase (RNase H-). Second strand cDNA synthesis was subsequently performed using DNA Polymerase I and RNase H. Remaining overhangs were converted into blunt ends via exonuclease/polymerase activities. After adenylation of 3′ ends of DNA fragments, NEBNext Adaptor with hairpin loop structure were ligated to prepare for hybridization. In order to select cDNA fragments of preferentially 150˜200 bp in length, the library fragments were purified with AMPure XP system (Beckman Coulter, Brea, Calif.). Then 3 μl USER Enzyme (NEB) was used with size-selected, adaptor-ligated cDNA at 37° C. for 15 minutes followed by 5 minutes at 95° C. before PCR. Then PCR was performed with Phusion High-Fidelity DNA polymerase, Universal PCR primers and Index (X) Primer. At last, PCR products were purified (AMPure XP system) and library quality was assessed on the Agilent Bioanalyzer 2100 system. The clustering of the index-coded samples was performed on a cBot Cluster Generation System using HiSeq PE Cluster Kit cBot-HS (Illumina; San Diego, Calif.) according to the manufacturer's instructions. After cluster generation, the paired-end libraries were sequenced on an Illumina HiSeq platform. […]

[1] = system: lamina propria mononuclear cells (LPMC); experiment: IL23 stimulation of LPMC from UC patients, RNA-seq; format: cell-based, human
Procedure: Human LPMC isolation: Colonic mucosal biopsies were obtained from UC patients (n=5) with endoscopically active disease (Mayo endoscopic subscore ≥2). LPMCs were isolated using a non-digestion, ‘walk out’ method previously published (Di Marco Barros et al., 2016, Cell 167, 203-218). In brief, 9 mm×9 mm×1.5 mm Cellfoam matrices (Cytomatrix PTY Ltd; Victoria, Australia) were autoclaved and incubated in 100 μg/mL rat tail collagen I (BD Biosciences; San Jose, Calif.) in PBS for 30 min at 37° C. and washed twice in PBS. Biopsies were washed for 20 min in 5 mL wash medium (RPMI 1640 10% FCS, β-mercaptoethanol, penicillin (500U/ml), streptomycin ([…]), metronidazole (5 mg/ml), gentamicin ([…], Sigma-Aldrich) and amphotericin 12.5 mg/ml (Thermo Fisher Scientific; Waltham, Mass.)). One endoscopic biopsy was placed on top of each matrix, which was then inverted and pressure was applied to crush the biopsy into the matrix. The matrices were placed into a 24-well plate (1 per well) and covered with 2 mL RPMI 1640 (supplemented with 10% FCS, β-mercaptoethanol, penicillin (100 U/ml), streptomycin ([…]), metronidazole (1 mg/ml), gentamicin (20 mg/ml), amphotericin (2.5 mg/ml)) and IL-2 (100U/mL, Novartis Pharmaceutical UK; London, United Kingdom). Cells were harvested and residual biopsy and empty wells were washed with PBS 0.02 mM HEPES. The cell suspension was passed through a […] nylon cell strainer, centrifuged at 400 g for 5 minutes.
After LPMC isolation, a cell count was performed using a hemochromocytometer and 200,000 cells were placed in each well of a 96 well round bottomed plate until the supply was exhausted. Complete media either with or without IL23 (10 ng/ml Biolegend; San Diego, Calif.) was added to each well to a total volume of 200 μl and incubated at 37° C. at 5% CO2 for 4 hours. Then cells from wells treated in the same condition were combined in a 1.5 ml RNAse free Eppendorf. The Eppendorfs were centrifuged at 1200 g for 5 minutes, the supernatant was removed and 800 μl Qiazol (Qiagen, Germany) added and mechanically homogenized using a needle and syringe.
as §1
Library preparation and sequencing: A total amount of 3 μg RNA per sample was used as input material for the RNA sample preparations. Sequencing libraries were generated using NEBNextR Ultra™ RNA Library Prep Kit for IlluminaR (NEB, Ipswich, Mass.) following manufacturer's recommendations and index codes were added to attribute sequences to each sample. Briefly, mRNA was purified from total RNA using poly-T oligo-attached magnetic beads. Fragmentation was carried out using divalent cations under elevated temperature in NEBNext First Strand Synthesis Reaction Buffer (5×). First strand cDNA was synthesized using random hexamer primer and M-MuLV Reverse Transcriptase (RNase H-). Second strand cDNA synthesis was subsequently performed using DNA Polymerase I and RNase H. Remaining overhangs were converted into blunt ends via exonuclease/polymerase activities. After adenylation of 3′ ends of DNA fragments, NEBNext Adaptor with hairpin loop structure were ligated to prepare for hybridization. […]

[2] = system: patients with moderate-to-severe UC; experiment: UNIFI phase 3 trial: ustekinumab induction in UC patients stratified by baseline IL22 enrichment score; format: in vivo, human; conditions: week 8
Description: Gene Set Variation Analysis: To test the activation of each of the cytokine regulated transcriptional programs we used gene set variation analysis (GSVA) (56) to probe whole transcriptional profiles of previously reposited datasets and the dataset generated in the context of the ustekinumab and golimumab trials programs.
UNIFI trial programme: The UNIFI trial was a randomized placebo-controlled phase 3 clinical trial evaluating the efficacy and safety of ustekinumab (NCT02407236) and has already been reported (43). In this study, for the first time, transcriptional data from biopsies were reported, which were correlated to clinical, endoscopic and biomarker data available from the UNIFI cohort. Colonic biopsies were sampled at defined time points after institution of treatment in a subset of patients and were immediately transferred to RNALater (Qiagen) and stored at −80° C. prior to RNA extraction. Whole genome transcriptomics were performed on the Affymetrix HG U133 PM array. Clinical data was recorded prospectively according to the trial protocol. Outcomes reported include: clinical remission (defined as a total Mayo score of ≤2 and no subscore >1) and deep remission (which required both histologic improvement (defined as neutrophil infiltration in <5% of crypts, no crypt destruction, and no erosions, ulcerations, or granulation tissue) and endoscopic improvement) at week 8. Analysis presented is based on all patients receiving ustekinumab regardless of dose (130 mg and 6 mg/kg).
Next, it was determined whether core transcripts regulated by the IL23/IL22 axis were differentially expressed in diseased tissue of UC patients. Gene Set Variation Analysis (GSVA) is an algorithm which tests whether entire transcriptional programmes are enriched in complex and heterogeneous samples. […] Endoscopically acquired colonic biopsies were sampled from the sigmoid colon of patients with moderate-to-severe UC (n=550) enrolled to the UNIFI phase III clinical trial, a randomized, placebo controlled trial evaluating the efficacy of ustekinumab, a monoclonal antibody (mAb) that blocks the p40 subunit shared by the human IL-12 and IL-23 cytokines. […] These findings were replicated in 2 additional independent cohorts of UC patients where transcriptomic data was available in publicly accessible repositories (GSE50971 and GSE16879, FIG. 4A). […] Consistent with IL23 being an important driver of IL22, there was a significant correlation between the enrichment scores for IL23 and IL22 in colonic biopsies.
Although IL23 and IL22 responsive transcriptional programs were enriched at population level in UC patients, there was considerable variation in magnitude of enrichment. Since it was unlikely that this variation was being driven by differences in disease severity (all patients in the UNIFI trial program had moderate to severe UC, with Mayo endoscopy subscores of either 2 or 3), the possibility that this molecular heterogeneity might represent important differences in underlying disease immunobiology was considered. If molecular stratification of UC patients according to the magnitude of IL23/IL22 responsive transcript enrichment was biologically and/or clinically meaningful, it was reasoned that UC patients with different degrees of enrichment would experience different outcomes and follow different trajectories. To test this hypothesis, patients from the UNIFI trial program were stratified according to IL23 or IL22 enrichment scores (in colonic biopsies sampled immediately prior initiation with ustekinumab), and whether these differences in molecular phenotype impacted treatment response were evaluated. Enrichment scores in colonic tissue, for both cytokines, could differentiate responders and non-responders to ustekinumab induction therapy (including patients on 130 mg and 6 mg/kg dose), although, the IL22-responsive transcriptional program was especially discriminatory (FIGS. 3D-3F and FIGS. 5A-5D). […]

[3] = patients with low IL22 enrichment scores (ES<0)

IL13: human recombinant IL13 (10 ng/mL) used on human colonoids
regulation of chemokine expression (human colonoids): strongly upregulate both eosinophil-active chemokines CCL24 and CCL26

IL23: recombinant IL23 (10 ng/ml, Biolegend) used to stimulate LPMC
GZMB transcript fold change ([1]; IL23 10 ng/ml, 4 hours): 1.40
IFNG transcript fold change ([1]; IL23 10 ng/ml, 4 hours): 1.77
IL17A transcript fold change ([1]; IL23 10 ng/ml, 4 hours): 1.24
IL17F transcript fold change ([1]; IL23 10 ng/ml, 4 hours): 1.70
IL22 transcript fold change ([1]; IL23 10 ng/ml, 4 hours): 1.69
TNFRSF8 transcript fold change ([1]; IL23 10 ng/ml, 4 hours): 1.41
differentially expressed transcripts ([1]; filtered at P<0.01): 222 transcripts
downregulated transcripts ([1]; filtered at P<0.01): 110
upregulated transcripts ([1]; filtered at P<0.01): 112

ustekinumab: monoclonal antibody blocking the p40 subunit shared by IL-12 and IL-23; heavy chain SEQ ID NO:10, light chain SEQ ID NO:11
outcomes in UC patients with high IL22 enrichment scores ([2]; high IL22 enrichment scores): broadly comparable to placebo treated patients
clinical remission [2, 3]: 26.6%
deep remission (clinical, endoscopic and histologic remission) [2, 3]: 22.7%
mucosal healing [2, 3]: 25.9%
deep remission (clinical, endoscopic and histologic remission) ([2]; unstratified UC patients): 11.7%
mucosal healing ([2]; unstratified UC patients): 15.6%
clinical remission ([2]; unstratified UC patients, ustekinumab induction 130 mg and 6 mg/kg pooled): 13.4%

B1: IFNγ: human recombinant IFNγ (20 ng/mL) used on human colonoids (protein, UniProt P01579 24-161, looked up)
Interferon gamma: QDPYVKEAENLKKYFNAGHSDVADNGTLFLGILKNWKEESDRKIMQSQIVSFYFKLFKNFKDDQSIQKSVETIKEDMNVKFFNSNKKKRDDFEKLTNYSVTDLNVQRKAIHELIQVMAELSPAAKTGKRKRSQMLFRG
regulation of chemokine expression (human colonoids): strongly upregulated CXCL9 and CXCL10
